Legend:
[1] = tested on: differentiated 3T3-L1 mouse adipocyte cells; experiment: Adipocyte glucose consumption in differentiated 3T3-L1 cells (colorimetric glucose assay of the medium); format: cell-based; conditions: 3T3-L1, 24 h, compound 10 μM, loss of glucose from culture medium, mean fold change (compound/DMSO)
Description: Activity of compounds on adipocyte glucose consumption was tested in differentiated 3T3-L1 mouse adipocyte cells. 3T3-L1 preadipocytes (ATCC) were routinely cultured in a growth medium composed of DMEM high-glucose (Sigma), 10% FBS (Gibco), 10 U/ml penicillin and 10 μg/ml streptomycin (P/S; Gibco). To induce adipogenic differentiation, a confluent layer of 3T3-L1 cells were incubated with the growth medium containing 2 μM rosiglitazone, 1 μM dexamethasone, 500 μM IBMX, and 1 μg/ml insulin (Sigma). Forty-eight (48) hours later (on day 2) and on days 4 and 6, medium of the cells was replaced with fresh medium containing 1 μg/ml insulin. On days 8 and 10, the medium was refreshed with regular growth medium and addition of insulin was omitted. On day 11, medium of the cells were 10 replaced with fresh medium containing either the indicated compounds (10 μM) or the vehicle in which the compounds were dissolved (DMSO). The final concentration of DMSO was 0.1% (v/v). Growth medium containing 0.1% DMSO was incubated in culture wells containing no cells and used as control. 24 hours later, medium was harvested and subjected to centrifugation at 10,000 g for 5 min. Glucose concentration in the supernatants was determined using a 15 colorimetric assay (Glucose Assay Kit I, Eton Biosciences). Glucose consumption in compound and vehicle treated cells was measured as loss of glucose from the culture medium and represented as mean fold change (compound/DMSO)±standard deviation (SD).

[2] = target: T1, His6 tagged human recombinant FABP4 (Homo sapiens, UniProt P15090); experiment: FABP4 TR-FRET assay: displacement of fluorescent fatty acid BODIPY FL C12; conditions: inhibition of BODIPY FL C12 binding to His6-FABP4; 1.2 μL of 1.085 mM compound in DMSO per well; triplicates, mean percent inhibition
T1 construct: purchased Cayman Chemicals 10009549
Text: Activity of compounds with FABP4 was profiled using a Terbium (Tb) based time resolved fluorescence energy transfer (TR-FRET) assay. The assay measures the compound mediated displacement of the fluorescent fatty acid BODIPY FL C12 (Thermo Fisher; catalog number D3822) from His6 tagged human recombinant FABP4 (His6-FABP4; Cayman Chemicals, catalog number 10009549) via recording the energy transfer from TB donor molecule on anti-His6-tag antibody to acceptor BODIPY moiety. Briefly, compounds and BODIPY FL C12 were prepared at a concentration of 1.085 mM and 4.2 μM, respectively, in DMSO. 1.2 μL of each compound or DMSO (vehicle control) and 1.2 μL of BODIPY FL C12 were added into the wells of a 384-well black polypropylene plate. His6-FABP4 and Tb anti-His6 antibody were prepared in the assay buffer (25 mM Tris/HCl, pH 7.4, 0.4 mg/ml γ-globulins, 0.010% NP-40, 1 mM DTT) at a concentration of 83 nM and 49.6 nM, respectively. The protein and antibody solutions were then mixed at a ratio of 34:7 (v/v) and incubated on ice for 30 minutes. The assay was initiated by adding 41 μL of the resulting protein/antibody solution into the wells containing the compounds and BODIPY FL C12. The plate was centrifuged and incubated at room temperature for 10 min. The TR-FRET signals were recorded using an EnVision Multilabel plate reader (PerkinElmer; TB excitation 320 nm, BODIPY FL C12 emission 520 nm; TB emission 615 nm). Relative fluorescence ratio (520 nm*10,000/615 nm) were used to calculate the compound mediated inhibition of BODIPY C12 FL fatty acid binding to FABP4. The compounds were tested in triplicates and the results were represented as mean percent inhibition (compound*100/DMSO)±standard deviation (SD). Glucose consumption and FABP4 inhibition is shown below in Table 3 below. The compounds showing no inhibition of activity in the TR-FRET assay are marked as N.A. N.D. stands for “not determined”.

T1 sequence (P15090 whole entry): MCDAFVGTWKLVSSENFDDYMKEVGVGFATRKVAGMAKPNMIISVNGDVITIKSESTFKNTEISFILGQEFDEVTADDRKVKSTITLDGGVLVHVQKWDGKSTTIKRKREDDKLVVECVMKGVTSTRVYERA

SMILES | fold induction at 10 µM [1] | inhibition at 1085 µM (stock) [2] [%]
CCCCc1ccc2nc(N3CCCC(C(=O)O)C3)cc(-c3ccccc3)c2c1 (stereo not shown) [1-(6-butyl-4-phenylquinolin-2-yl)piperidine-3-carboxylic acid] | 1.25 | 98.1
CCCCc1ccc2nc(N3CCCC3C(=O)O)cc(-c3ccccc3)c2c1 (stereo not shown) [1-(6-butyl-4-phenylquinolin-2-yl)pyrrolidine-2-carboxylic acid] | 1.12 | 92.5
O=C(O)C1CCCN1c1cc(-c2ccccc2)c2cc(Cl)ccc2n1 (stereo not shown) [1-(6-chloro-4-phenylquinolin-2-yl)pyrrolidine-2-carboxylic acid] | 1.08 | 105
CCCCCCc1ccc2nc(-n3ccc(C(=O)O)c3)cc(-c3ccccc3)c2c1 [1-(6-hexyl-4-phenylquinolin-2-yl)-1H-pyrrole-3-carboxylic acid] | 1.09 | < 0
CCCCCCc1ccc2nc(N3CCC(C)(C(=O)O)C3)cc(-c3ccccc3)c2c1 (stereo not shown) [1-(6-hexyl-4-phenylquinolin-2-yl)-3-methylpyrrolidine-3-carboxylic acid] | 1.36 | 36.4
CCCCCCc1ccc2nc(N3CC(C(=O)O)CC3=O)cc(-c3ccccc3)c2c1 (stereo not shown) [1-(6-hexyl-4-phenylquinolin-2-yl)-5-oxopyrrolidine-3-carboxylic acid] | 1.11 | 6.12
CCCCCCc1ccc2nc(N3CCCC(C(=O)O)C3)cc(-c3ccccc3)c2c1 (stereo not shown) [1-(6-hexyl-4-phenylquinolin-2-yl)piperidine-3-carboxylic acid] | 1.16 | 88.3
CCCCCCc1ccc2nc(N3CCCC3C(=O)O)cc(-c3ccccc3)c2c1 (stereo not shown) [1-(6-hexyl-4-phenylquinolin-2-yl)pyrrolidine-2-carboxylic acid] | 1.09 | 67.5
CCCCc1ccc2nc(N3CCCC(C(=O)O)C3)cc(-c3cccc(C#N)c3)c2c1 (stereo not shown) [1-[6-butyl-4-(3-cyanophenyl)quinolin-2-yl]piperidine-3-carboxylic acid] | 0.91 | 24.3
CCCCCCc1ccc2nc(N3CCCC(C(=O)O)C3)cc(-c3cccnc3)c2c1 (stereo not shown) [1-[6-hexyl-4-(pyridin-3-yl)quinolin-2-yl]piperidine-3-carboxylic acid] | 1.09 | 91.6
CCCc1ccc2nc(N(C)CC(=O)O)cc(-c3cccc(C#N)c3)c2c1 [2-([4-(3-cyanophenyl)-6-propylquinolin-2-yl](methyl)amino}acetic acid] | 1.31 | 27.7
CCCc1ccc2nc(OCC(=O)O)cc(-c3cccc(C#N)c3)c2c1 [2-([4-(3-cyanophenyl)-6-propylquinolin-2-yl]oxy}acetic acid] | 1.06 | 34.8
CCCCCCc1ccc2nc(N(C)CC(=O)O)cc(Oc3ccc(F)cc3)c2c1 [2-([4-(4-fluorophenoxy)-6-hexylquinolin-2-yl](methyl)amino}acetic acid] | 1.27 | 65.2
CCCCCCCc1ccc2nc(N(C)CC(=O)O)cc(-c3ccc(F)cc3)c2c1 [2-([4-(4-fluorophenyl)-6-heptylquinolin-2-yl](methyl)amino}acetic acid] | 1.25 | 75.6
CCCCCCc1ccc2nc(N(C)CC(=O)O)c(C)c(-c3ccc(F)cc3)c2c1 [2-([4-(4-fluorophenyl)-6-hexyl-3-methylquinolin-2-yl](methyl)amino}acetic acid] | 1.19 | 111
CN(CC(=O)O)c1cc(-c2ccccc2)c2cc(CCc3nc4ccccc4o3)ccc2n1 [2-({6-[2-(1,3-benzoxazol-2-yl)ethyl]-4-phenylquinolin-2-yl}(methyl)amino)acetic acid] | 1.23 | 27.4

SMILES | fold induction at 10 µM [1] | inhibition at 1085 µM (stock) [2] [%]
CN(CC(=O)O)c1cc(-c2ccccc2)c2cc(CCN3CCc4ccccc43)ccc2n1 [2-({6-[2-(2,3-dihydro-1H-indol-1-yl)ethyl]-4-phenylquinolin-2-yl}(methyl)amino)acetic acid] |  | 76.3
CN(CC(=O)O)c1cc(-c2ccccc2)c2cc(CCc3ccccc3Cl)ccc2n1 [2-({6-[2-(2-chlorophenyl)ethyl]-4-phenylquinolin-2-yl}(methyl)amino)acetic acid] | 1.26 | 30.1
COc1ccccc1CCc1ccc2nc(N(C)CC(=O)O)cc(-c3ccccc3)c2c1 [2-({6-[2-(2-methoxyphenyl)ethyl]-4-phenylquinolin-2-yl}(methyl)amino)acetic acid] | 1.11 | 65.1
CN(CC(=O)O)c1cc(-c2ccccc2)c2cc(CCN3CCC(O)CC3)ccc2n1 [2-({6-[2-(4-hydroxypiperidin-1-yl)ethyl]-4-phenylquinolin-2-yl}(methyl)amino)acetic acid] |  | 14.3
CCN(CC)CCc1ccc2nc(N(C)CC(=O)O)cc(-c3ccccc3)c2c1 [2-({6-[2-(diethylamino)ethyl]-4-phenylquinolin-2-yl}(methyl)amino)acetic acid] |  | 5.17
CN(CC(=O)O)c1cc(-c2ccccc2)c2cc(CCN3CCc4ccccc4C3)ccc2n1 [2-[methyl({4-phenyl-6-[2-(1,2,3,4-tetrahydroisoquinolin-2-yl)ethyl]quinolin-2-yl})amino]acetic acid] |  | 21.7
CN(CC(=O)O)c1cc(-c2ccccc2)c2cc(CCN3CCCC3)ccc2n1 [2-[methyl({4-phenyl-6-[2-(pyrrolidin-1-yl)ethyl]quinolin-2-yl})amino]acetic acid] |  | 2.04
CN(CC(=O)O)c1cc(-c2ccccc2)c2cc(CCc3nc4ccccc4n3C)ccc2n1 [2-[methyl({6-[2-(1-methyl-1H-1,3-benzodiazol-2-yl)ethyl]-4-phenylquinolin-2-yl})amino]acetic acid] |  | 30.3
CCCCCCc1ccc2nc(N(C)CC(=O)O)cc(-c3cccc(C)c3)c2c1 [2-{[6-hexyl-4-(3-methylphenyl)quinolin-2-yl](methyl)amino}acetic acid] | 1.11 | 
CN(CC(=O)O)c1cc(-c2ccccc2)c2cc(CCc3ccccc3)ccc2n1 [2-{methyl [4-phenyl-6-(2-phenylethyl)quinolin-2-yl]amino}acetic acid] | 1.48 | 
CCCCCCc1ccc2nc(C(C)CC(=O)O)cc(-c3ccccc3)c2c1 (stereo not shown) [3-(6-hexyl-4-phenylquinolin-2-yl)butanoic acid] | 1.3 | 
CCCCc1ccc2nc(N(C)CCC(=O)O)cc(-c3ccccc3)c2c1 [3-[(6-butyl-4-phenylquinolin-2-yl)(methyl)amino]propanoic acid] | 1.1 | 
CCCCCCc1ccc2nc(CC3SC(=O)NC3=O)cc(-c3ccccc3)c2c1 (stereo not shown) [5-[(6-hexyl-4-phenylquinolin-2-yl)methyl]-1,3-thi azolidine-2,4-dione] | 1.33 | 
CCCCCCc1ccc2nc(/C=C3/SC(=O)NC3=O)cc(-c3ccccc3)c2c1 [5-[(6-hexyl-4-phenylquinolin-2-yl)methylidene]-1,3-thiazolidine-2,4-dione] | 1.29 | 
CCCCCCc1ccc2nc(N(C)c3nn[nH]n3)cc(-c3ccccc3)c2c1 [6-hexyl-N-methyl-4-phenyl-N-(2H-1,2,3,4-tetrazol-5-yl)quinolin-2-amine] | 1.11 | 

Reference: patent US20230183179A1, “NOVEL CELL METABOLISM MODULATING COMPOUNDS AND USES THEREOF” (CRESCENTA BIOSCIENCES, priority 2020, published 2023)
